{"source": "patent US9150523B2", "about": "“Piperazine derivatives, methods for preparing same, and uses thereof in the treatment of insulin resistance” (METABOLYS, priority 2011, dated 2015)", "tested_on": "db/db mouse", "assay": "Antidiabetic activity in db/db mouse (drop in glycaemia after oral administration)", "type": "in vivo", "conditions": "8 weeks old, 200 mg/kg per os", "experimental": "The antidiabetic activity of the compound of formula (I) orally on a type 2 diabetes animal model, the db/db mouse, was tested. Diabetic mice are used at the age of 8 weeks; they then have very high hyperglycaemia. The animals are stabilised at a minimum for one week after reception and up to the day of experimentation in an animal house at a temperature regulated at 21°-22° C. and subjected to a fixed cycle of light (from 7 a.m. to 7 p.m.) and darkness (from 7 p.m. to 7 a.m.). Their food consisted of a maintenance regime; water and food were supplied “ad libitum”. The mice are treated orally with the product to be tested (200 mg/kg per os) in suspension in a mixture of water and methyl cellulose or the vehicle (mixture of water and methyl cellulose) in the morning of the day of the experimentation. Just before the administration of the product and one and two hours after the administration of the product, a blood sample (one drop of blood) is taken following a small incision in the tail for determining glycaemia. This glycaemia is measured by means of a glucometer (Lifescan OneTouch Ultra, LifeScan, Johnson-Johnson Company) and OneTouch Ultra glycaemia measurement strips."}
{"smiles": "COc1ccccc1N1CCN(CCOc2ccc(CCCCC(=O)O)cc2)CC1.Cl", "note": "[Compound 1]", "values": [{"measurement": "Drop in glycaemia (in % of the initial value) After 1 hour", "setting": "1 hour after administration", "value": 34, "unit": "%"}, {"measurement": "Drop in glycaemia (in % of the initial value) After 2 hours", "setting": "2 hours after administration", "value": 44, "unit": "%"}]}
